Experimental data taken from patent publication US20110117055A1, “Methods of Treating Hepatitis C Virus with Oxoacetamide Compounds” (priority 2009, published 2011).

Tested on: HCV2aChLuc virus
Assay: In vitro HCVcc entry assay: HCV2aChLuc virus infection of Huh7 cells, Renilla luciferase read-out
Type: cell-based, HCV genotype 2a
Conditions: Hepatitis C virus, Huh-7, read-out: Activity class (IC50), tested according to the method of Example 3

Structure (SMILES)	IC50 [nM]
O=C(Nc1ccc2c(c1)CCC2)C(=O)c1ccc(OCCN2CCOCC2)c2ccccc12 [Compound 64]	> 500
O=C(Nc1cccc2c1CCC2)C(=O)c1ccc(OCCN2CCOCC2)c2ccccc12 [Compound 65]	5 to 500
CC(C)(C)CCNC(=O)C(=O)c1ccc(OCCN2CCOCC2)c2ccccc12 [Compound 66]	> 500
CC(C)(C)CC(C)(C)NC(=O)C(=O)c1ccc(OCCN2CCOCC2)c2ccccc12 [Compound 67]	> 500
O=C(N[C@@H]1C[C@H]2CC[C@@H]1C2)C(=O)c1ccc(OCCN2CCOCC2)c2ccccc12 [Compound 68]	> 500
CC1(C)[C@@H]2CC[C@@]1(C)[C@@H](NC(=O)C(=O)c1ccc(OCCN3CCOCC3)c3ccccc13)C2 [Compound 69]	> 500
CC(C)(C)c1cc(NC(=O)C(=O)c2ccc(OCCN3CCOCC3)c3ccccc23)on1 [Compound 70]	> 500
CCNC(=O)c1cc(C(C)(C)C)cc(NC(=O)C(=O)c2ccc(OCCN3CCOCC3)c3ccccc23)c1O [Compound 71]	5 to 500
COc1c(Cl)cc(C(C)(C)C)cc1NC(=O)C(=O)c1ccc(OCCN2CCOCC2)c2ccccc12 [Compound 72]	5 to 500
COc1ccc(C(C)(C)C)cc1NC(=O)C(=O)c1ccc(Nc2ccnc(N3CCOCC3)n2)c2ccccc12 [Compound 73]	> 500
COc1c(NC(=O)C(=O)c2ccc(OCCN3CCOCC3)c3ccc(Cl)cc23)cc(C(C)(C)C)cc1NS(C)(=O)=O [Compound 74]	5 to 500
COc1c(NC(=O)C(=O)c2ccc(OC)c3ccccc23)cc(C(C)(C)C)cc1NS(C)(=O)=O [Compound 75]	5 to 500
COc1c(NC(=O)C(=O)c2ccc(OCCN3CCOCC3)c3cccc(Cl)c23)cc(C(C)(C)C)cc1NS(C)(=O)=O [Compound 76]	> 500
COc1c(NC(=O)C(=O)c2ccc(OC)c3ccccc23)cc(C(C)(C)C)cc1C(N)=O [Compound 77]	> 500
CCCS(=O)(=O)Nc1cc(C(C)(C)C)cc(NC(=O)C(=O)c2ccc(OC)c3ccccc23)c1OC [Compound 78]	5 to 500
CCN(CC)CCOc1ccc(C(=O)C(=O)Nc2cc(C(C)(C)C)cc(NS(C)(=O)=O)c2OC)c2ccccc12 [Compound 79]	> 500
COc1c(NC(=O)C(=O)c2ccc(OCCN(C)C)c3ccccc23)cc(C(C)(C)C)cc1NS(C)(=O)=O [Compound 80]	> 500
O=C(Nc1cnc2ccccc2c1)C(=O)c1ccc(OCCN2CCOCC2)c2ccccc12 [Compound 81]	> 500
O=C(Nc1cc(C(F)(F)F)ccc1Cl)C(=O)c1ccc(OCCN2CCOCC2)c2ccccc12 [Compound 82]	> 500
O=C(Nc1cc(C(F)(F)F)ccc1Br)C(=O)c1ccc(OCCN2CCOCC2)c2ccccc12 [Compound 83]	> 500
CCCS(=O)(=O)Nc1cc(C(C)(C)C)cc(NC(=O)C(=O)c2ccc(OCC(=O)c3ccc(OC)cc3)c3ccccc23)c1OC [Compound 84]	> 500
COc1c(NC(=O)C(=O)c2ccc(OCC(N)=O)c3ccccc23)cc(C(C)(C)C)cc1NS(C)(=O)=O [Compound 85]	> 500
COCCOCCOc1ccc(C(=O)C(=O)Nc2cc(C(C)(C)C)cc(NS(C)(=O)=O)c2OC)c2ccccc12 [Compound 86]	> 500

Structure (SMILES)	IC50 [nM]
CCCS(=O)(=O)Nc1cc(C(C)(C)C)cc(NC(=O)C(=O)c2ccc(N3CCC(CC(=O)OCC)CC3)c3ccccc23)c1OC [Compound 87]	> 500
CC(C)(C)c1cc(C#N)cc(NC(=O)C(=O)c2ccc(Br)c3ccccc23)c1 [Compound 88]	> 500
COc1c(Br)cc(C(C)(C)C)cc1NC(=O)C(=O)c1ccc(OCCN2CCOCC2)c2ccccc12 [Compound 89]	5 to 500
O=C(Nc1ccc2c(c1)OCCO2)C(=O)c1ccc(OCCN2CCOCC2)c2ccccc12 [Compound 90]	> 500
COc1c(NC(=O)C(=O)c2ccc(OCCN3CCOCC3)c3ccccc23)cc(C(C)(C)C)cc1-c1nnn[nH]1 [Compound 91]	> 500
COc1c(NC(=O)C(=O)c2ccc(OCC[N+]3([O-])CCOCC3)c3ccccc23)cc(C(C)(C)C)cc1NS(C)(=O)=O [Compound 92]	5 to 500
COc1c(NC(=O)C(=O)c2ccc(OCCN(CCOCc3ccccc3)CCOCc3ccccc3)c3ccccc23)cc(C(C)(C)C)cc1NS(C)(=O)=O [Compound 93]	> 500
COc1c(C#N)cc(C(C)(C)C)cc1NC(=O)C(=O)c1ccc(-c2ccc(NCCC(C)(C)C)nc2)c2ccccc12 [Compound 94]	> 500
COc1c(C#N)cc(C(C)(C)C)cc1NC(=O)C(=O)c1ccc(Nc2ccnc(N3CCCC3)n2)c2ccccc12 [Compound 95]	> 500
COc1c(NC(=O)C(=O)c2ccc(OCCN3CC(C)(C)OC(C)(C)C3)c3ccccc23)cc(C(C)(C)C)cc1NS(C)(=O)=O [Compound 96]	5 to 500
COc1c(NC(=O)C(=O)c2ccc(OCCN3CCOCC3)c3ccccc23)cc(C(C)(C)C)cc1C(=O)N1CCNCC1 [Compound 97]	> 500
COc1c(NC(=O)C(=O)c2ccc(OCCN3CCOCC3)c3ccccc23)cc(C(C)(C)C)cc1C(=O)N1CCN(C)CC1 [Compound 98]	> 500
COc1c(NC(=O)C(=O)c2ccc(OCCN3CCOCC3)c3ccccc23)cc(C(C)(C)C)cc1C(=O)N1CCN(C(C)C)CC1 [Compound 99]	5 to 500
COc1c(NC(=O)C(=O)c2ccc(OCCN3CCOCC3)c3ccccc23)cc(C(C)(C)C)cc1C(=O)N1CCN(CC2CC2)CC1 [Compound 100]	> 500
COc1c(NC(=O)C(=O)c2ccc(OCCN3CCOCC3)c3ccccc23)cc(C(C)(C)C)cc1C(=O)N1CCN(CCO)CC1 [Compound 101]	> 500
COc1c(NC(=O)C(=O)c2ccc(OCCN3CCOCC3)c3ccccc23)cc(C(C)(C)C)cc1C(=O)N1CCCN(C)CC1 [Compound 102]	> 500
COc1c(NC(=O)C(=O)c2ccc(OCCN3CCOCC3)c3ccccc23)cc(C(C)(C)C)cc1C(=O)NC1CCN(C)CC1 [Compound 103]	> 500
COc1c(NC(=O)C(=O)c2ccc(OCCN3CCOCC3)c3ccccc23)cc(C(C)(C)C)cc1C(=O)N1CC2CCC(C1)N2 [Compound 104]	> 500
COc1c(NC(=O)C(=O)c2ccc(OCCN3CCOCC3)c3ccccc23)cc(C(C)(C)C)cc1C(=O)NC1CCNCC1 [Compound 105]	> 500
COc1c(NC(=O)C(=O)c2ccc(OCCN3CCOCC3)c3ccccc23)cc(C(C)(C)C)cc1C(=O)N1CCCCC1CN(C)C (stereo not drawn) [Compound 106]	> 500
COc1c(NC(=O)C(=O)c2ccc(OCCN3CCOCC3)c3ccccc23)cc(C(C)(C)C)cc1-n1ccnc1 [Compound 107]	5 to 500
COc1c(NC(=O)C(=O)c2ccc(OCCN3CCOCC3)c3ccccc23)cc(C(C)(C)C)cc1-n1ccnn1 [Compound 108]	5 to 500
CC(C)(C)c1cc(NC(=O)C(=O)c2ccc(OCCN3CCOCC3)c3ccccc23)cc(NS(C)(=O)=O)c1 [Compound 109]	5 to 500

Structure (SMILES)	IC50 [nM]
COc1c(NC(=O)C(=O)c2ccc(OCCN3CCOCC3)c3ccccc23)cccc1NS(C)(=O)=O [Compound 110]	> 500
COc1c(NC(=O)C(=O)c2ccc(OCCN3CCCCC3)c3ccccc23)cc(C(C)(C)C)cc1NS(C)(=O)=O [Compound 111]	5 to 500
Cc1ccc(Cl)cc1NC(=O)C(=O)c1ccc(OCCN2CCOCC2)c2ccccc12 [Compound 112]	> 500
O=C(Nc1n[nH]c2ccccc12)C(=O)c1ccc(OCCN2CCOCC2)c2ccccc12 [Compound 113]	> 500
O=C(NC1Cc2ccccc2C1)C(=O)c1ccc(OCCN2CCOCC2)c2ccccc12 [Compound 114]	> 500
O=C(NC1CCc2ccccc21)C(=O)c1ccc(OCCN2CCOCC2)c2ccccc12 (stereo not drawn) [Compound 115]	> 500
COc1c(NC(=O)C(=O)c2ccc(OCCN3CCOCC3)c3ccccc23)cc(C(F)(F)F)cc1NS(C)(=O)=O [Compound 116]	> 500
COc1c(NC(=O)C(=O)c2ccc(OCCN3CCOCC3)c3ccccc23)cc(C(C)(C)C)cc1N(CCN1CCOCC1)S(C)(=O)=O [Compound 117]	> 500
O=C(Nc1nc(Cl)ccc1[N+](=O)[O-])C(=O)c1ccc(OCCN2CCOCC2)c2ccccc12 [Compound 118]	> 500
O=C(Nc1cc(Br)cnc1Cl)C(=O)c1ccc(OCCN2CCOCC2)c2ccccc12 [Compound 119]	5 to 500
COc1c(NC(=O)CCCCC2SCC3NC(=O)NC32)cc(C(C)(C)C)cc1NC(=O)C(=O)c1ccc(OCCN2CCOCC2)c2ccccc12 (stereo not drawn) [Compound 120]	5 to 500
COc1ccc(I)cc1NC(=O)C(=O)c1ccc(OCCN2CCOCC2)c2ccccc12 [Compound 121]	5 to 500
CC(C)(C)c1ccc(O)c(NC(=O)C(=O)c2ccc(OCCN3CCOCC3)c3ccccc23)c1 [Compound 122]	5 to 500
COc1c(NC(=O)C(=O)c2ccc(OCCCS(=O)(=O)N(C)C)c3ccccc23)cc(C(C)(C)C)cc1NS(C)(=O)=O [Compound 123]	5 to 500
COc1c(NC(=O)C(=O)c2ccc(Nc3ccnc(N4CCOCC4)n3)c3ccccc23)cc(C(C)(C)C)cc1C(N)=O [Compound 124]	> 500
COc1c(NC(=O)C(=O)c2ccc(-c3ccc(N(C)C)nc3)c3ccccc23)cc(C(C)(C)C)cc1NS(C)(=O)=O [Compound 125]	> 500
COc1ccc(C(C)(C)C)cc1NC(=O)C(=O)c1ccc(-c2ccc(N(C)C)nc2)c2ccccc12 [Compound 126]	> 500
COc1ccc(C(C)(C)C)cc1NC(=O)C(=O)c1ccc(-c2cccnc2)c2ccccc12 [Compound 127]	> 500
COc1c(NC(=O)C(=O)c2ccc(Br)c3ccccc23)cc(C(C)(C)C)cc1NS(C)(=O)=O [Compound 128]	> 500
CNc1ccc(-c2ccc(C(=O)C(=O)Nc3cc(C(C)(C)C)cc(C(=O)NC4CC4)c3OC)c3ccccc23)cn1 [Compound 130]	> 500
CNc1ccc(-c2ccc(C(=O)C(=O)Nc3cc(C(C)(C)C)cc(NS(C)(=O)=O)c3OC)c3ccccc23)cn1 [Compound 131]	> 500
COc1c(N)cc(C(C)(C)C)cc1NC(=O)C(=O)c1cccc2ccccc12 [Compound 132]	> 500
COc1ccc(C(C)(C)C)cc1NC(=O)C(=O)c1ccc(Br)c2ccccc12 [Compound 134]	5 to 500
